For data set [1], the system named is MCF 10A (breast cells). As to the kind of experiment: Antiproliferative activity in vitro, SRB assay. The format is cell-based, human. The note with it: Homo sapiens, MCF-10A; 72 h exposure, SRB; normal cell line; read-out: IC50 ± SD MCF 10A.
Data set [2] concerns MCF7 (breast carcinoma). Kind of data set: Antiproliferative activity in vitro, SRB assay. The format is cell-based, human. The note with it: Homo sapiens, MCF7; 72 h exposure, SRB; read-out: IC50 ± SD MCF7. On the technique in general: Sulforhodamine B stains cellular protein and so reports cell mass.
For data set [3], the system named is DU 145 (prostate cancer). Kind of data set: Antiproliferative activity in vitro, SRB assay. Conditions: Homo sapiens, DU-145; 72 h exposure, SRB; read-out: IC50 ± SD DU 145. It is filed as cell-based, human.
Data set [4] in a line: Stability of flavonoids in culture media without cells (control), HPLC. It is filed as physicochemical. The note with it: HLMEC and MCF7 culture media not containing cells, 3 h. The procedure: Flavonoids dissolved (as described in Section 2.4) were added to the HLMEC and MCF7 line cultures, and the final concentration was 100 μg/mL. The cultures were incubated in 96-well plates for 3 h and transferred to microtubes containing 400 µL of cold methanol (−20 °C) and kept at −20 °C for 1 h. After centrifugation at 12,000× g for 10 min, samples were analyzed by HPLC. To determine the stability of flavonoids in HLMEC and MCF7 culture media (not containing cells) under analogous conditions, control experiments were also carried out.

Data set [5] is described as follows: FRAP (ferric ion reducing antioxidant power) assay. The note with it: 10 min, 593 nm; mean ± SD. As for the experimental part: The antioxidant capacity of flavonoids was measured in three separate tests: ABTS, DPPH, and ferric ion reducing antioxidant power (FRAP) assays (ABTS, DPPH, and FRAP reagents from Sigma-Aldrich). All tested compounds were dissolved in DMSO. All determinations were performed in triplicate. Standard curves were prepared for all assays using different concentrations of Trolox (6-hydroxy-2,5,7,8-tetramethylchroman-2-carboxylic acid) (Sigma-Aldrich). Trolox is a water-soluble analogue of vitamin E with high antioxidant activity, commonly used as a control and a reference in studies of antioxidant activity. The results were expressed as the equivalent of μmol Trolox per μmol of the test compound. The absorbance was measured using a UV-2401 PC spectrophotometer (Shimadzu, Kyoto, Japan). Concentrations of the tested samples were in the range from 50 µg/mL to 10 mg/mL.
The FRAP method is based on measuring the ability of antioxidants to reduce ferric 2,4,6-tris(2-pyridyl)-1,3,5-triazine [Fe(III)-TPTZ] in the blue colored ferrous form, which absorbs light at λ = 593 nm. The Fe(III)-TPTZ reagent was prepared as a mixture of acetate buffer (pH 3.6), 10 mM TPTZ in 40 mM HCl, and 20 mM FeCl3 in the ratio of 10:1:1 (v/v/v). The FRAP reagent was freshly prepared before each experiment. The samples (0.1 mL) were mixed in polystyrene cuvettes with 3 mL of ferric complex and 0.9 mL of distilled water. The absorbance was measured after 10 min at λ = 593 nm.

On to `O=c1cc(-c2ccc(O)cc2)oc2cc(O)cc(O)c12` [Compound 2, apigenin], for which the IC50 (as a rule, the concentration at which inhibition is half-maximal) in data set [1] was 35.7 ± 11.9 µM; in data set [2], 22.5 ± 1.29 µM; in data set [3], 28.9 ± 8.4 µM. Further, the “compound remaining in culture media without cells” value in data set [4] was “over 98%”.
Regarding `O=C1C[C@@H](c2ccc(O)cc2)Oc2cc(O)cc(O)c21` [Compound 6, naringenin], the results for the IC50 in data set [1], in data set [2] and in data set [3] were 185 ± 23.2 µM, 215 ± 32.3 µM and 242 ± 15.6 µM, respectively. Further, the “compound remaining in culture media without cells” value in data set [4] is given as “over 98%”.
With `O=c1cc(-c2ccc(O)cc2)oc2c(O)c(O)cc(O)c12` [Compound 10, 8-hydroxyapigenin], in data set [5], the “TEAC FRAP” value is 7.824 ± 0.657 µmol trolox per µmol of tested.

These data come from publication PMC6680932, “Structure–Antioxidant–Antiproliferative Activity Relationships of Natural C7 and C7–C8 Hydroxylated Flavones and Flavanones” (Antioxidants, 2019).
